According to patent publication US20250034212A1, “PEPTIDE” (PEPTIDREAM INC., priority 2021, published 2025):
Blank lines part the entries; values can stand above or below the molecule they belong to. Starred links: 1 amine or outer side, 2 acyl side, 3 side chain; linkers in the order of their positions; H or OH if unused. Positions of bridges follow the written chain, without caps; N, C: chain ends. Non-standard residues stand in square brackets, D forms with d. Residues, ends and D or L forms follow the SMILES beside them. Groups on a side chain read outwards from the residue. *: point of attachment. KCOpipzaa = N6-(4-(carboxymethyl)piperazine-1-carbonyl)-L-lysine, O=C(NCCCC[C@H](N[*:1])C(=O)[*:2])N1CCN(CC(=O)[*:3])CC1; Piperazinyl(4-CH2COOH) = O=C(O)CN1CCN(*)CC1; 1Nal = N[C@@H](Cc1cccc2ccccc12)C(=O)O; Gly(NCH2CH2Ph) = O=C(O)CNCCc1ccccc1; 4Pal = N[C@@H](Cc1ccncc1)C(=O)O; CO = O=C([*:1])[*:2]

Columns and labels:
[1] = biological target: T1, recombinant human TGF-β1 (Homo sapiens, UniProt P01137); experiment: SBE reporter assay in SBE reporter-HEK293 cells, TGF-β1 stimulation; format: cell-based
T1 construct: purchased R&D systems
Outline: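 SBE luciferase reporter HEK293 cells in 0.5% FBS medium, preincubated 20 min with peptide, then stimulated 18 h with 0.13 nM recombinant human TGF-β1. Luminescence read; inhibition scaled with maximal TGF-β signal as 0% and unstimulated as 100%.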

[2] = biological target: T1, recombinant human TGF-β1; experiment: SPR intermolecular interaction test, TGF-β1 immobilized on CM3 sensor chip (Biacore T200); format: binding; details: Single Cycle Kinetics, human TGF-β1
Procedure: In this Example, (1) the activity of binding to TGF-β for various peptides consisting of the amino acid sequences set forth in SEQ ID NOs: 2-33 synthesized in Examples 1 to 5 and 7 was evaluated. (2) The activity and selectivity of binding of the peptide consisting of the amino acid sequence set forth in SEQ ID NO: 13 synthesized in Example 2 against two isoforms of TGF-β (TGF-β1 and β2) were checked. For this purpose, the intermolecular interaction of each peptide against TGF-β was tested by surface plasmon resonance (SPR) in the method described below. Specific test methods are described below.
A CM3 sensor chip (Global Life Science Technologies Japan Co., Ltd.) was inserted into a BiacoreT200 (Global Life Science Technologies Japan Co., Ltd.). Three priming runs were performed using running buffer: HBS-EP+ (Global Life Science Technologies Japan Co., Ltd.). The system was then equilibrated at a flow rate of 30 μL/min.
Subsequently, 50 μL of 60 mM EDC solution (Global Life Science Technologies Japan Co., Ltd.) and 50 μL of 650 mM NHS solution (Global Life Science Technologies Japan Co., Ltd.) were mixed. Next, the reaction was carried out at a flow rate of 10 μL/min for 420 seconds. Then, 150 μL of 0.2 μM TGF-β solution diluted in 10 mM acetic acid solution (pH 5.0) was prepared and reacted at a flow rate of 10 μL/min for 420 seconds to immobilize TGF-β on the CM3 sensor chip. TGF-β was human-derived TGF-β1 or β2 (recombinant human TGF-β1, 2) and was obtained from R&D systems. After immobilization, capping was performed by reacting with 1.0 M ethanolamine aqueous solution (Global Life Science Technologies Japan Co., Ltd.) at a flow rate of […] for 420 seconds.
A liquid prepared by dissolving each peptide at 10 mM in DMSO solution was diluted with running buffer to prepare a peptide-dissolved solution at a final concentration of 10 μM. Subsequently, 50 nM, 25 nM, 12.5 nM, 5 nM, and 2.5 nM peptide solutions were prepared. Using the above samples, the kinetics of each peptide against TGF-β was obtained by SPR measurement.
The kinetics evaluation model was Single Cycle Kinetics, and curve fitting was performed using Biacore T200 Evaluation Software Version 3.0 (Global Life Science Technologies Japan Co., Ltd.). The binding of various peptides to TGF-β was evaluated by performing least-squares curve fitting on the obtained sensorgram to calculate the KD value.

[3] = biological target: T2, recombinant human TGF-β2 (Homo sapiens, UniProt P61812); experiment: SBE reporter assay in SBE reporter-HEK293 cells, TGF-β2 stimulation; format: cell-based; details: FIG. 1
T2 construct: purchased R&D systems
T2 sequence (P61812 303-414 limits assumed): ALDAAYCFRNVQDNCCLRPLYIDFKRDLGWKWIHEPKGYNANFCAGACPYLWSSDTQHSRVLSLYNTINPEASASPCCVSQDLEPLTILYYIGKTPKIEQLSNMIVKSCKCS
Procedure: In addition, the selectivity of each peptide for TGF-β isoforms (TGF-β1 and β2) is checked. For this purpose, the inhibitory activity against TGF-β1 and TGF-β2 was evaluated using the peptide consisting of the amino acid sequence set forth in SEQ ID NO: 13 synthesized in Example 2.
SBE reporter-HEK293 cells were cultured in E-MEM (Wako) containing 10% FBS (Sigma). The cells were detached using Accutase (Innovative Cell Technologies), suspended in E-MEM containing 0.5% FBS, seeded onto a 96-well plate(s) at a concentration of 45,000 cells per well, and cultured overnight. The next day, the peptide was added and allowed to stand for 20 min, and recombinant human TGF-β1 (R&D systems) or recombinant human TGF-β2 (R&D systems) was then added at 0.13 nM and cultured for 18 hours.
Thereafter, luciferase assay ONE-Glo reagent was added to each well and the plate was shaken for 5 min. A SpectraMax Paradigm multimode microplate reader (Molecular Devices) was then used for signal detection. The obtained signals were analyzed by GraphPad Prism. The inhibitory activity of the peptide was calculated while the maximum signal induced by TGF-β was set to 0% inhibition and no stimulation was set to 100% inhibition.

[4] = biological target: T3, recombinant human TGF-β2 (R&D systems) (human, UniProt P61812 303-414); experiment: SPR, TGF-β2 immobilised, single cycle kinetics; target TGF-β2, not TGF-β1
T3 construct: Bought protein
T3 sequence (looked up): T2 sequence (P61812 303-414 limits assumed)

[5] = biological target: T4, recombinant human TGF-β1 (R&D systems) (human, UniProt P01137 279-390); experiment: cell-based or functional assay
[6] = biological target: T4, recombinant human TGF-β1 (R&D systems); experiment: cell-based or functional assay; remark: listed apart in the source
[7] = biological target: T4, recombinant human TGF-β1 (R&D systems); experiment: cell-based or functional assay; remark: listed apart in the source
[8] = biological target: T3, recombinant human TGF-β2 (R&D systems); experiment: cell-based or functional assay

T1 sequence (P01137 279-390 limits assumed): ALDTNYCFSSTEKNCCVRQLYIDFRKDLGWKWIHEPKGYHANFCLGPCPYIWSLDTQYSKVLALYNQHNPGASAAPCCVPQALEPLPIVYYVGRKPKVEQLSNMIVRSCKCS
T4 sequence (P01137 279-390 limits assumed): as above

TGF-β1 antagonist / inhibitory activity (in words) ([1]; SBE reporter assay, FIG. 1 and Tables 2 and 3): inhibits not only TGF-β1 but also TGF-β2
inhibition at 62 pM ([1]; peptide 0.062 nM, TGF-β1 0.13 nM, 18 hours): 4.18%
inhibition at 75 pM ([1]; peptide 0.075 nM, TGF-β1 0.13 nM, 18 hours): 10.1%
inhibition at 0.000185 µM ([1]; peptide 0.185 nM, TGF-β1 0.13 nM, 18 hours): 19.8%
inhibition at 0.00056 µM ([1]; peptide 0.56 nM, TGF-β1 0.13 nM, 18 hours): 48.4%
inhibition at 0.00075 µM ([1]; peptide 0.75 nM, TGF-β1 0.13 nM, 18 hours): 65.2%
inhibition at 0.0017 µM ([1]; peptide 1.7 nM, TGF-β1 0.13 nM, 18 hours): 80.9%
inhibition at 0.005 µM ([1]; peptide 5.0 nM, TGF-β1 0.13 nM, 18 hours): 94.4%
inhibition at 0.0075 µM ([1]; peptide 7.5 nM, TGF-β1 0.13 nM, 18 hours): 96%
inhibition at 0.015 µM ([1]; peptide 15.0 nM, TGF-β1 0.13 nM, 18 hours): 98.7%
inhibition at 0.075 µM ([1]; peptide 75.0 nM, TGF-β1 0.13 nM, 18 hours): 99.5%
Kd [2]: 0.86 nM
inhibitory activity against TGF-β2 (in words) [3]: inhibits not only TGF-β1 but also TGF-β2
Molecule: CC(C)[C@@H]1NC(=O)CN(CCc2ccccc2)C(=O)[C@H](CC(=O)O)NC(=O)[C@H](CC(=O)O)NC(=O)[C@H](Cc2ccncc2)NC(=O)[C@H](C(C)C)NC(=O)[C@H](CC(N)=O)NC(=O)[C@H](C(C)C)NC(=O)[C@H](C(C)C)NC(=O)[C@H](Cc2cccc3ccccc23)NC(=O)[C@H](Cc2ccccc2)NC(=O)CSC[C@@H](C(=O)NCC(N)=O)NC(=O)[C@H](CCCCNC(=O)N2CCN(CC(=O)O)CC2)NC(=O)[C@H](Cc2c[nH]cn2)NC(=O)[C@H](Cc2ccc(O)cc2)NC(=O)[C@H](Cc2cccc3ccccc23)NC1=O [TGFb1_012] ({CH2CO}-F[1Nal]VVNV[4Pal]DD[Gly(NCH2CH2Ph)]V[1Nal]YHK([CO-Piperazinyl(4-CH2COOH)])CG-NH2; thioether N-16)

Kd [4]: 2 nM
SBE reporter % inhibition, peptide 0.062 nM [5]: 4.18%
SBE reporter % inhibition, peptide 0.185 nM [5]: 19.8%
SBE reporter % inhibition, peptide 0.56 nM [5]: 48.4%
SBE reporter % inhibition, peptide 1.7 nM [5]: 80.9%
SBE reporter % inhibition, peptide 5.0 nM [5]: 94.4%
SBE reporter % inhibition, peptide 15.0 nM [5]: 98.7%
SBE reporter % inhibition, peptide 0.075 nM [6]: 10.1%
SBE reporter % inhibition, peptide 0.75 nM [6]: 65.2%
SBE reporter % inhibition, peptide 7.5 nM [6]: 96%
SBE reporter % inhibition, peptide 75.0 nM [6]: 99.5%
IC50 (read off the curve) (SBE reporter assay in SBE reporter-HEK293 cells; TGF-β1 at 0.13 nM) [7]: ~0.7 nM
IC50 (read off the curve) (SBE reporter assay in SBE reporter-HEK293 cells; TGF-β2 at 0.13 nM) [8]: ~6 nM
B1: TGFb1_012 (peptide)
peptide: {CH2CO}-F[1Nal]VVNV[4Pal]DD[Gly(NCH2CH2Ph)]V[1Nal]YH[KCOpipzaa]CG-NH2
modifications: thioether N-16
SMILES: CC(C)[C@@H]1NC(=O)CN(CCc2ccccc2)C(=O)[C@H](CC(=O)O)NC(=O)[C@H](CC(=O)O)NC(=O)[C@H](Cc2ccncc2)NC(=O)[C@H](C(C)C)NC(=O)[C@H](CC(N)=O)NC(=O)[C@H](C(C)C)NC(=O)[C@H](C(C)C)NC(=O)[C@H](Cc2cccc3ccccc23)NC(=O)[C@H](Cc2ccccc2)NC(=O)CSC[C@@H](C(=O)NCC(N)=O)NC(=O)[C@H](CCCCNC(=O)N2CCN(CC(=O)O)CC2)NC(=O)[C@H](Cc2c[nH]cn2)NC(=O)[C@H](Cc2ccc(O)cc2)NC(=O)[C@H](Cc2cccc3ccccc23)NC1=O
notes: cyclic peptide; C-terminal G is a linker; also called TGF-β1_012
